The values below come from patent US20240174647A1 (NEURON23, INC., priority 2022, published 2024).

For this assay, the target named is wt human LRRK2, catalytic site (Homo sapiens (Human), UniProt Q5S007). In words: TR-FRET LanthaScreen Tb Kinase Activity Assay (LRRK2 kinase inhibition). The assay is classed as biochemical. To be noted: 2 nM wt human LRRK2, 400 nM fluorescein-ERM (LRRKtide) peptide, 38 μM ATP, 120 minutes at room temperature. An outline of the steps: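 LanthaScreen TR-FRET with 2 nM wt human LRRK2 catalytic site, 400 nM fluorescein-ERM (LRRKtide) peptide and 38 µM ATP in Kinase Buffer A; 120 min at room temperature. Phosphorylation detected with EDTA and Tb-anti-pLRRKtide after 60 min; IC50 from emission ratios.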
Chain of wt human LRRK2, catalytic site (Q5S007 1879-2138): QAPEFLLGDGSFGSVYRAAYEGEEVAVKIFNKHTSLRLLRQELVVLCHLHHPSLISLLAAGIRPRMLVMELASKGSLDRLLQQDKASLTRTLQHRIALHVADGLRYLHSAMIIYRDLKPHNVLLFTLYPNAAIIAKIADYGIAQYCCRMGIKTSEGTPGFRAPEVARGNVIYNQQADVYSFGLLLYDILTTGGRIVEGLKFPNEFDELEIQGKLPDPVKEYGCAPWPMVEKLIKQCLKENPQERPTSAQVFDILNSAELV
`OCCNc1nc(Nc2cccc3c2cnn3CC(F)F)ncc1C(F)(F)F` [Example 141, 2-[[2-[[1-(2,2-difluoroethyl)indazol-4-yl]amino]-5-(trifluoromethyl)pyrimidin-4-yl]amino]ethanol] returned an IC50 of less than 50 nM. The value for `CNc1nc(Nc2cc(C)cc3[nH]ncc23)ncc1C(F)(F)F` [Example 24, N4-methyl-N2-(6-methyl-1H-indazol-4-yl)-5-(trifluoromethyl)pyrimidine-2,4-diamine] was less than 50 nM; that for `CNc1nc(Nc2cccc3c2cnn3CC(F)F)ncc1C(F)(F)F` [Example 94, N2-(1-(2,2-difluoroethyl)-1H-indazol-4-yl)-N4-methyl-5-(trifluoromethyl)pyrimidine-2,4-diamine] was less than 50 nM; that for `CNc1nc(Nc2ccc3c(C#N)nn(C)c3c2)ncc1C(F)(F)F` [Example 11, 1-methyl-6-((4-(methylamino)-5-(trifluoromethyl)pyrimidin-2-yl)amino)-1H-indazole-3-carbonitrile] was less than 50 nM. The value for `CC(C)(C#N)n1ncc2c(Nc3ncc(C(F)(F)F)c(NC4CC(O)C4)n3)cccc21` (centres unmarked) [Example 157, 2-[4-[[4-[(3-hydroxycyclobutyl)amino]-5-(trifluoromethyl)pyrimidin-2-yl]amino]indazol-1-yl]-2-methyl-propanenitrile] was less than 50 nM. On to `CNc1nc(Nc2cc3[nH]ncc3cc2OC)ncc1C(F)(F)F` [Example 3, N2-(5-methoxy-1H-indazol-6-yl)-N4-methyl-5-(trifluoromethyl)pyrimidine-2,4-diamine], for which the IC50 is less than 50 nM. Take `CNc1nc(Nc2ccc(C3CCOCC3)c3c2cnn3CC#N)ncc1C(F)(F)F` [Example 89, 2-(4-((4-(methylamino)-5-(trifluoromethyl)pyrimidin-2-yl)amino)-7-(tetrahydro-2H-pyran-4-yl)-1H-indazol-1-yl)acetonitrile]: the IC50 is less than 50 nM. The value for `N#CCn1ncc2c(Nc3ncc(C(F)(F)F)c(NC4CC(F)(F)C4)n3)cccc21` [Example 96, 2-(4-((4-((3,3-difluorocyclobutyl)amino)-5-(trifluoromethyl)pyrimidin-2-yl)amino)-1H-indazol-1-yl)acetonitrile] was less than 50 nM; that for `O=S(=O)(C1CC1)n1ncc2c(Nc3ncc(C(F)(F)F)c(NC4CC4)n3)ccnc21` [Example 159, N^4-cyclopropyl-N^2-(1-(cyclopropylsulfonyl)-1H-pyrazolo[3,4-b]pyridin-4-yl)-5-(trifluoromethyl)pyrimidine-2,4-diamine] was less than 50 nM; that for `CNc1nc(Nc2cn(CC#N)c3cnccc23)ncc1C(F)(F)F` [Example 131, 2-[3-[[4-(methylamino)-5-(trifluoromethyl)pyrimidin-2-yl]amino]pyrrolo[2,3-c]pyridin-1-yl]acetonitrile] was less than 50 nM. As for `CNc1nc(Nc2cccc3c2cnn3C(C)(C)C#N)nc2[nH]cnc12` [Example 202, 2-methyl-2-[4-[[6-(methylamino)-9H-purin-2-yl]amino]indazol-1-yl]propanenitrile], the IC50 is less than 50 nM. In the case of `CS(=O)(=O)CCn1ncc2c(Nc3nc(NC4CC4)c4c(Cl)c[nH]c4n3)cccc21` [Example 203, 5-chloro-N^4-cyclopropyl-N^2-(1-(2-(methylsulfonyl)ethyl)-1H-indazol-4-yl)-7H-pyrrolo[2,3-d]pyrimidine-2,4-diamine], the IC50 was less than 50 nM. For `CCNc1nc(Nc2cccc3c2cnn3S(C)(=O)=O)nc2[nH]cc(Cl)c12` [Example 151, 5-chloro-N^4-ethyl-N^2-(1-methylsulfonylindazol-4-yl)-7H-pyrrolo[2,3-d]pyrimidine-2,4-diamine], the IC50 was less than 50 nM. The value for `CNc1nc(Nc2ncn3ccccc23)ncc1C(F)(F)F` [Example 117, N^2-(imidazo[1,5-a]pyridin-1-yl)-N4-methyl-5-(trifluoromethyl)pyrimidine-2,4-diamine] was no less than 200 nM; that for `CC(C)(CS(C)(=O)=O)n1ncc2c(Nc3ncc(C(F)(F)F)c(NC4CC4)n3)cccc21` [Example 195, N^4-cyclopropyl-N^2-(1-(2-methyl-1-(methylsulfonyl)propan-2-yl)-1H-indazol-4-yl)-5-(trifluoromethyl)pyrimidine-2,4-diamine] was less than 50 nM; that for `CCNc1nc(Nc2cccc3c2cnn3CC(F)F)nc2[nH]cc(Cl)c12` [Example 147, 5-chloro-N^2-(1-(2,2-difluoroethyl)-1H-indazol-4-yl)-N^4-ethyl-7H-pyrrolo[2,3-d]pyrimidine-2,4-diamine] was less than 50 nM.

Compound `CNc1nc(Nc2cc(CC#N)cc3c2cnn3C)ncc1C(F)(F)F` [Example 51, 2-(1-methyl-4-((4-(methylamino)-5-(trifluoromethyl)pyrimidin-2-yl)amino)-1H-indazol-6-yl)acetonitrile] showed an IC50 of less than 50 nM. Then `CCNc1nc(Nc2cccc3c2cnn3C(C)(C)C#N)nc2[nH]cc(Cl)c12` [Example 156, 2-(4-((5-chloro-4-(ethylamino)-7H-pyrrolo[2,3-d]pyrimidin-2-yl)amino)-1H-indazol-1-yl)-2-methylpropanenitrile], with less than 50 nM; and `CNc1nc(Nc2ccc3cnn(C)c3c2OC)ncc1C(F)(F)F` [Example 14, N2-(7-methoxy-1-methyl-1H-indazol-6-yl)-N4-methyl-5-(trifluoromethyl)pyrimidine-2,4-diamine], with 50 to 200 nM; and `CS(=O)(=O)CCn1ncc2c(Nc3ncc(C(F)(F)F)c(NC4CCC4)n3)cccc21` [Example 163, N^4-cyclobutyl-N^2-(1-(2-(methylsulfonyl)ethyl)-1H-indazol-4-yl)-5-(trifluoromethyl)pyrimidine-2,4-diamine], with less than 50 nM. `CC(C)S(=O)(=O)CCn1ncc2c(Nc3ncc(C(F)(F)F)c(NC4CC4)n3)cccc21` [Example 194, N4-cyclopropyl-N^2-(1-(2-(isopropylsulfonyl)ethyl)-1H-indazol-4-yl)-5-(trifluoromethyl)pyrimidine-2,4-diamine] came in with an IC50 of less than 50 nM. The value for `CNc1nc(Nc2ccc3c(C(=O)N4CCOCC4)n[nH]c3c2)ncc1C(F)(F)F` [Example 9, (6-((4-(methylamino)-5-(trifluoromethyl)pyrimidin-2-yl)amino)-1H-indazol-3-yl)(morpholino)methanone] was less than 50 nM; that for `CNc1nc(Nc2ccc(C3=CCN(C)CC3)c3c2cnn3CC#N)ncc1C(F)(F)F` [Example 87, 2-(7-(1-methyl-1,2,3,6-tetrahydropyridin-4-yl)-4-((4-(methylamino)-5-(trifluoromethyl)pyrimidin-2-yl)amino)-11H-indazol-1-yl)acetonitrile] was less than 50 nM; that for `CNc1nc(Nc2cc3nn(C)cc3cc2C)ncc1C(F)(F)F` [Example 18, N2-(2,5-dimethyl-2H-indazol-6-yl)-N4-methyl-5-(trifluoromethyl)pyrimidine-2,4-diamine] was 50 to 200 nM. `CNc1nc(Nc2ccc3cnccn23)ncc1C(F)(F)F` [Example 126, N^4-methyl-N^2-pyrrolo[1,2-a]pyrazin-6-yl-5-(trifluoromethyl)pyrimidine-2,4-diamine] displayed an IC50 of no less than 200 nM. Then `CNc1nc(Nc2ccc(C3=CCN(C)CC3)c3c2cnn3C)ncc1C(F)(F)F` [Example 81, N4-methyl-N2-(1-methyl-7-(1-methyl-1,2,3,6-tetrahydropyridin-4-yl)-1H-indazol-4-yl)-5-(trifluoromethyl)pyrimidine-2,4-diamine], with less than 50 nM.
